Earlier results in patent US10246411B2, “(Z)-3,4,5-trimethoxystyrylbenzenesulfonamides as potential anticancer agents” (COUNCIL OF SCIENTIFIC & INDUSTRIAL RESEARCH, priority 2014, dated 2019).

Key:
tubulin = conditions: background, literature; cited from earlier work
[1] = tested on: VCR-resistant P388 cell lines; conditions: two kinds of VCR-resistant P388 cell lines; background, literature; cited from earlier work

For `COc1ccc(S(=O)(=O)Nc2cccnc2Nc2ccc(O)cc2)cc1` [E7010, N-[2-[(4-hydroxyphenyl)amino]-3-pyridinyl]-4-methoxybenzenesulfonamide], the “inhibition of tubulin polymerization” value (tubulin) is given as “dose-dependent inhibition of tubulin polymerization” and the “activity against VCR-resistant P388 cell lines” value [1] is given as “active”.

In the case of `COc1ccc(/C=C\c2cc(OC)c(OC)c(OC)c2)cc1O` [CA-4, Combretastatin A-4], the “inhibition of tubulin polymerization” value (tubulin) is given as “potent inhibitor of tubulin polymerization”.

In the case of `COc1cc(/C=C\c2ccc(OC)c(N)c2)cc(OC)c1` [(Z)-5-(3,5-dimethoxystyryl)-2-methoxyaniline], the “inhibition of tubulin polymerization” value (tubulin) is given as “five times stronger than CA-4”.
